Data taken from patent US6992079B2, “Substituted 11-phenyl-dibenzazepine compounds useful for the treatment or prevention of diseases characterized by abnormal cell proliferation” (President Fellows of Harvard College, priority 1997, dated 2006).
Like-named read-outs stand apart in the source and are kept apart here.

Legend:
PC-3 = assay: In-Vitro Testing SRB panel: Prostate Cancer; format: cell-based
[1] = system: A2058 metastatic melanoma; assay: Mouse xenograft tumor growth; format: in vivo, CD-1 nude mice
Experimental: NCI-A2058 human melanoma cell line was grown as monolayer culture in Minimum essential medium (D-MEM) supplemented with 10% fetal bovine serum (FBS), 0.1 mM non-essential amino acid, 1.0 mM sodium pyruvate, 100U/ml penicillin, 100 μg/ml streptomycin and 0.25 μg/ml amphotericin B and L-alanyl-1-glutamine (2 mM) at 37° C. in an atmosphere of 5% CO2 in air. The tumor cells were routinely subcultured twice weekly by trypsin-EDTA treatment. The cells were harvested from subconfluent logarithmically growing culture by treatment with typsin-EDTA and counted for tumor inoculation.
An acclimation period of at least 7 days were allowed between animal receipt and commence of tumor inoculation. When the female CD-1 nude mice were more than 6-7 weeks of age (20-25 g), each mouse was subcutaneously injected with 5.0×10^6 NCI-A2058 human melanoma cells in 0.1 ml of PBS solution at the right flank of the mice to induce tumor growth.

RL-60 (TS) = assay: In-Vitro Testing SRB panel: Leukemia; format: cell-based
M14 = assay: In-Vitro Testing SRB panel: Melanoma; format: cell-based
SR = assay: In-Vitro Testing SRB panel: Leukemia; format: cell-based
A549/ATCC = format: cell-based
CARI-1 = assay: In-Vitro Testing SRB panel: Renal Cancer; format: cell-based
UACC-257 = assay: In-Vitro Testing SRB panel: Melanoma; format: cell-based
MOLT-4 = assay: In-Vitro Testing SRB panel: Leukemia; format: cell-based
[2] = system: H209 small lung cell carcinoma; assay: Mouse xenograft tumor growth; format: in vivo, SCID mice
[3] = system: squamous cell carcinoma (KLN-205) cells; assay: Tumor growth in murine squamous cell carcinoma model; format: in vivo, mouse; conditions: KLN-205; subcutaneous injection or oral administration of 80 mg/kg/day for 30 days
DU-145 = assay: In-Vitro Testing SRB panel: Prostate Cancer; format: cell-based
SK-MEL-2 = assay: In-Vitro Testing SRB panel: Melanoma; format: cell-based
SF-268 = assay: In-Vitro Testing SRB panel: CNS Cancer; format: cell-based
SK-MEL-2B = assay: In-Vitro Testing SRB panel: Melanoma; format: cell-based
LOX IMVI = assay: In-Vitro Testing SRB panel: Melanoma; format: cell-based
[4] = In-Vitro Testing SRB panel: Renal Cancer; format: cell-based
[5] = Homo sapiens, read-out: LC50 (the source's name)

COc1ccc2c(c1)CN(C(=O)c1ccc([N+](=O)[O-])cc1)c1ccc(Cl)cc1C2c1ccccc1Cl (stereo not shown) [Compound 30]
GI50 (PC-3; Homo sapiens, PC-3): 1.33 µM
CC50 (PC-3; Homo sapiens, PC-3, read-out: LC50 (the source's name)): > 100 µM
TGI (PC-3; PC-3): >1.00E−04 Molar
Percent Growth (PC-3; PC-3, Log10 concentration −4.0 Molar): 30%
Percent Growth (PC-3; PC-3, Log10 concentration −5.0 Molar): 29%
Percent Growth (PC-3; PC-3, Log10 concentration −6.0 Molar): 53%
Percent Growth (PC-3; PC-3, Log10 concentration −7.0 Molar): 103%
Percent Growth (PC-3; PC-3, Log10 concentration −8.0 Molar): 100%
tumor growth [1]: showed inhibition of tumor growth
GI50 (RL-60 (TS); Homo sapiens): 0.297 µM
CC50 (RL-60 (TS); Homo sapiens, RL-60 (TB), read-out: LC50 (the source's name)): > 100 µM
TGI (RL-60 (TS); RL-60 (TB)): >1.00E−04 Molar
Percent Growth (RL-60 (TS); RL-60 (TB), Log10 concentration −4.0 Molar): 29%
Percent Growth (RL-60 (TS); RL-60 (TB), Log10 concentration −5.0 Molar): 22%
Percent Growth (RL-60 (TS); RL-60 (TB), Log10 concentration −6.0 Molar): 35%
Percent Growth (RL-60 (TS); RL-60 (TB), Log10 concentration −7.0 Molar): 64%
Percent Growth (RL-60 (TS); RL-60 (TB), Log10 concentration −8.0 Molar): 94%
GI50 (M14; Homo sapiens, M14): 0.045 µM
CC50 (M14; Homo sapiens, M14, read-out: LC50 (the source's name)): > 100 µM
TGI (M14; M14): >1.00E−04 Molar
Percent Growth (M14; M14, Log10 concentration −4.0 Molar): 30%
Percent Growth (M14; M14, Log10 concentration −5.0 Molar): 37%
Percent Growth (M14; M14, Log10 concentration −6.0 Molar): 75%
Percent Growth (M14; M14, Log10 concentration −7.0 Molar): 93%
Percent Growth (M14; M14, Log10 concentration −8.0 Molar): 99%
TGI (SR): >1.00E−04 Molar
GI50 (SR; Homo sapiens): 0.455 µM
CC50 (SR; [5]): > 100 µM
Percent Growth (SR; Log10 concentration −4.0 Molar): 23%
Percent Growth (SR; Log10 concentration −5.0 Molar): 12%
Percent Growth (SR; Log10 concentration −6.0 Molar): 32%
Percent Growth (SR; Log10 concentration −7.0 Molar): 85%
Percent Growth (SR; Log10 concentration −8.0 Molar): 77%
TGI (A549/ATCC; A549/ATCC): >1.00E−04 Molar
Percent Growth (A549/ATCC; A549/ATCC, Log10 concentration −4.0 Molar): 23%
Percent Growth (A549/ATCC; A549/ATCC, Log10 concentration −5.0 Molar): 25%
Percent Growth (A549/ATCC; A549/ATCC, Log10 concentration −6.0 Molar): 81%
Percent Growth (A549/ATCC; A549/ATCC, Log10 concentration −7.0 Molar): 96%
Percent Growth (A549/ATCC; A549/ATCC, Log10 concentration −8.0 Molar): 96%
GI50 (A549/ATCC; Homo sapiens, A549): 3.57 µM
CC50 (A549/ATCC; Homo sapiens, A549/ATCC, read-out: LC50 (the source's name)): > 100 µM
TGI (CARI-1; CARI-1): >1.00E−04 Molar
Percent Growth (CARI-1; CARI-1, Log10 concentration −4.0 Molar): 59%
Percent Growth (CARI-1; CARI-1, Log10 concentration −5.0 Molar): 68%
Percent Growth (CARI-1; CARI-1, Log10 concentration −6.0 Molar): 71%
Percent Growth (CARI-1; CARI-1, Log10 concentration −7.0 Molar): 108%
Percent Growth (CARI-1; CARI-1, Log10 concentration −8.0 Molar): 141%
GI50 (CARI-1; Homo sapiens): > 100 µM
CC50 (CARI-1; Homo sapiens, CARI-1, read-out: LC50 (the source's name)): > 100 µM
GI50 (UACC-257; Homo sapiens, UACC-257): 1.86 µM
CC50 (UACC-257; Homo sapiens, UACC-257, read-out: LC50 (the source's name)): > 100 µM
TGI (UACC-257; UACC-257): >1.00E−04 Molar
Percent Growth (UACC-257; UACC-257, Log10 concentration −4.0 Molar): 13%
Percent Growth (UACC-257; UACC-257, Log10 concentration −5.0 Molar): 20%
Percent Growth (UACC-257; UACC-257, Log10 concentration −6.0 Molar): 61%
Percent Growth (UACC-257; UACC-257, Log10 concentration −7.0 Molar): 91%
Percent Growth (UACC-257; UACC-257, Log10 concentration −8.0 Molar): 99%
GI50 (MOLT-4; Homo sapiens, MOLT-4): 1.33 µM
CC50 (MOLT-4; Homo sapiens, MOLT-4, read-out: LC50 (the source's name)): > 100 µM
TGI (MOLT-4; MOLT-4): >1.00E−04 Molar
Percent Growth (MOLT-4; MOLT-4, Log10 concentration −4.0 Molar): 13%
Percent Growth (MOLT-4; MOLT-4, Log10 concentration −5.0 Molar): 23%
Percent Growth (MOLT-4; MOLT-4, Log10 concentration −6.0 Molar): 54%
Percent Growth (MOLT-4; MOLT-4, Log10 concentration −7.0 Molar): 89%
Percent Growth (MOLT-4; MOLT-4, Log10 concentration −8.0 Molar): 103%
tumor growth [2]: showed inhibition of tumor growth
tumor growth [3]: significantly inhibited tumor growth
TGI (DU-145; DU-145): >1.00E−04 Molar
Percent Growth (DU-145; DU-145, Log10 concentration −4.0 Molar): 31%
Percent Growth (DU-145; DU-145, Log10 concentration −5.0 Molar): 38%
Percent Growth (DU-145; DU-145, Log10 concentration −6.0 Molar): 95%
Percent Growth (DU-145; DU-145, Log10 concentration −7.0 Molar): 98%
Percent Growth (DU-145; DU-145, Log10 concentration −8.0 Molar): 98%
GI50 (DU-145; Homo sapiens, DU-145): 6.24 µM
CC50 (DU-145; Homo sapiens, DU-145, read-out: LC50 (the source's name)): > 100 µM
GI50 (SK-MEL-2; Homo sapiens, SK-MEL-2): > 100 µM
CC50 (SK-MEL-2; Homo sapiens, SK-MEL-2, read-out: LC50 (the source's name)): > 100 µM
TGI (SK-MEL-2; SK-MEL-2): >1.00E−04 Molar
Percent Growth (SK-MEL-2; SK-MEL-2, Log10 concentration −4.0 Molar): 71%
Percent Growth (SK-MEL-2; SK-MEL-2, Log10 concentration −5.0 Molar): 74%
Percent Growth (SK-MEL-2; SK-MEL-2, Log10 concentration −6.0 Molar): 95%
Percent Growth (SK-MEL-2; SK-MEL-2, Log10 concentration −7.0 Molar): 94%
Percent Growth (SK-MEL-2; SK-MEL-2, Log10 concentration −8.0 Molar): 102%
GI50 (SF-268; Homo sapiens, SF-268): 3.08 µM
CC50 (SF-268; Homo sapiens, SF-268, read-out: LC50 (the source's name)): > 100 µM
TGI (SF-268; SF-268): >1.00E−04 Molar
Percent Growth (SF-268; SF-268, Log10 concentration −4.0 Molar): 21%
Percent Growth (SF-268; SF-268, Log10 concentration −5.0 Molar): 30%
Percent Growth (SF-268; SF-268, Log10 concentration −6.0 Molar): 69%
Percent Growth (SF-268; SF-268, Log10 concentration −7.0 Molar): 115%
Percent Growth (SF-268; SF-268, Log10 concentration −8.0 Molar): 104%
GI50 (SK-MEL-2B; Homo sapiens, SK-MEL-28): > 100 µM
CC50 (SK-MEL-2B; Homo sapiens, SK-MEL-28, read-out: LC50 (the source's name)): > 100 µM
TGI (SK-MEL-2B; SK-MEL-28): >1.00E−04 Molar
Percent Growth (SK-MEL-2B; SK-MEL-28, Log10 concentration −4.0 Molar): 65%
Percent Growth (SK-MEL-2B; SK-MEL-28, Log10 concentration −5.0 Molar): 70%
Percent Growth (SK-MEL-2B; SK-MEL-28, Log10 concentration −6.0 Molar): 86%
Percent Growth (SK-MEL-2B; SK-MEL-28, Log10 concentration −7.0 Molar): 100%
Percent Growth (SK-MEL-2B; SK-MEL-28, Log10 concentration −8.0 Molar): 101%
TGI (LOX IMVI): >1.00E−04 Molar
GI50 (LOX IMVI; Homo sapiens): 4.3 µM
CC50 (LOX IMVI; [5]): > 100 µM
Percent Growth (LOX IMVI; Log10 concentration −4.0 Molar): 35%
Percent Growth (LOX IMVI; Log10 concentration −5.0 Molar): 26%
Percent Growth (LOX IMVI; Log10 concentration −6.0 Molar): 91%
Percent Growth (LOX IMVI; Log10 concentration −7.0 Molar): 103%
Percent Growth (LOX IMVI; Log10 concentration −8.0 Molar): 98%
GI50 ([4]; Homo sapiens): 7.81 µM
CC50 ([4]; Homo sapiens, OO-31, read-out: LC50 (the source's name)): > 100 µM
TGI ([4]; OO-31): >1.00E−04 Molar
Percent Growth ([4]; OO-31, Log10 concentration −4.0 Molar): 43%
Percent Growth ([4]; OO-31, Log10 concentration −5.0 Molar): 43%
Percent Growth ([4]; OO-31, Log10 concentration −6.0 Molar): 107%
Percent Growth ([4]; OO-31, Log10 concentration −7.0 Molar): 94%
Percent Growth ([4]; OO-31, Log10 concentration −8.0 Molar): 98%
